Assay results: ChEMBL document CHEMBL3632622, “Synthesis and biological evaluation of novel N-phenyl ureidobenzenesulfonate derivatives as potential anticancer agents. Part 2. Modulation of the ring B” (Eur J Med Chem, 2015)
Active and inactive are the calls of the source. The calls are words filed in the database; no cut-off is given here.

Assays:
[1] = Antiproliferative activity against human HT1080 cells assessed as growth inhibition incubated for 48 hrs by sulforhodamine B assay; type: functional, cell-based, HT-1080
M21 [2] = assay: Cell cycle arrest in human M21 cells assessed as accumulation at S phase at 4.1 uM after 24 hrs by DAPI staining-based flow cytometry (reference value: 17.4%); type: functional
M21 [3] = assay: Induction DNA DSBs in human M21 cells assessed as increase in gamma H2AX foci at 4.1 uM incubated for 24 hrs by DAPI staining based immunocytochemistry; type: cell-based
HT-29 = assay: Antiproliferative activity against human HT-29 cells assessed as growth inhibition incubated for 48 hrs by sulforhodamine B assay; type: functional, cell-based; conditions: HT-29, 48 h
M21 [4] = assay: Cell cycle arrest in human M21 cells assessed as accumulation at G0/G1 phase at 4.1 uM after 24 hrs by DAPI staining-based flow cytometry (reference value: 65.1%); type: functional
M21 [5] = assay: Antiproliferative activity against human M21 cells assessed as growth inhibition incubated for 48 hrs by sulforhodamine B assay; type: functional, cell-based; conditions: M21, 48 h
M21 [6] = assay: Cell cycle arrest in human M21 cells assessed as accumulation at subG1 phase at 4.1 uM after 24 hrs by DAPI staining-based flow cytometry (reference value: 1.5%); type: functional
M21 [7] = assay: Cell cycle arrest in human M21 cells assessed as accumulation at G2/M phase at 4.1 uM after 24 hrs by DAPI staining-based flow cytometry (reference value: 16%); type: functional
MCF7 = assay: Antiproliferative activity against human MCF7 cells assessed as growth inhibition incubated for 48 hrs by sulforhodamine B assay; type: functional, cell-based; conditions: MCF7, 48 h
M21 [8] = assay: Cell cycle arrest in human M21 cells assessed as accumulation at G2/M phase at 7.6 uM after 24 hrs by DAPI staining-based flow cytometry (reference value: 16%); type: functional
M21 [9] = assay: Cell cycle arrest in human M21 cells assessed as accumulation at G0/G1 phase at 7.6 uM after 24 hrs by DAPI staining-based flow cytometry (reference value: 65.1%); type: functional
M21 [10] = assay: Cell cycle arrest in human M21 cells assessed as accumulation at S phase at 7.6 uM after 24 hrs by DAPI staining-based flow cytometry (reference value: 17.4%); type: functional
M21 [11] = assay: Cell cycle arrest in human M21 cells assessed as accumulation at subG1 phase at 7.6 uM after 24 hrs by DAPI staining-based flow cytometry (reference value: 1.5%); type: functional
M21 [12] = assay: Cell cycle arrest in human M21 cells assessed as accumulation at G0/G1 phase at 34 uM after 24 hrs by DAPI staining-based flow cytometry (reference value: 65.1%); type: functional
M21 [13] = assay: Cell cycle arrest in human M21 cells assessed as accumulation at S phase at 34 uM after 24 hrs by DAPI staining-based flow cytometry (reference value: 17.4%); type: functional
M21 [14] = assay: Cell cycle arrest in human M21 cells assessed as accumulation at G2/M phase at 34 uM after 24 hrs by DAPI staining-based flow cytometry (reference value: 16%); type: functional
M21 [15] = assay: Cell cycle arrest in human M21 cells assessed as accumulation at subG1 phase at 34 uM after 24 hrs by DAPI staining-based flow cytometry (reference value: 1.5%); type: functional
M21 [16] = assay: Cell cycle arrest in human M21 cells assessed as accumulation at G0/G1 phase at 8.1 uM after 24 hrs by DAPI staining-based flow cytometry (reference value: 65.1%); type: functional
M21 [17] = assay: Cell cycle arrest in human M21 cells assessed as accumulation at subG1 phase at 8.1 uM after 24 hrs by DAPI staining-based flow cytometry (reference value: 1.5%); type: functional
M21 [18] = assay: Cell cycle arrest in human M21 cells assessed as accumulation at G2/M phase at 8.1 uM after 24 hrs by DAPI staining-based flow cytometry (reference value: 16%); type: functional
M21 [19] = assay: Cell cycle arrest in human M21 cells assessed as accumulation at S phase at 8.1 uM after 24 hrs by DAPI staining-based flow cytometry (reference value: 17.4%); type: functional
M21 [20] = assay: Induction DNA DSBs in human M21 cells assessed as increase in gamma H2AX foci at 20 uM incubated for 24 hrs by DAPI staining based immunocytochemistry; type: cell-based
M21 [21] = assay: Cell cycle arrest in human M21 cells assessed as accumulation at G2/M phase at 1 uM after 24 hrs by DAPI staining-based flow cytometry (reference value: 16%); type: functional
M21 [22] = assay: Induction DNA DSBs in human M21 cells assessed as increase in gamma H2AX foci at 1 uM incubated for 24 hrs by DAPI staining based immunocytochemistry; type: cell-based
M21 [23] = assay: Cell cycle arrest in human M21 cells assessed as accumulation at S phase at 1 uM after 24 hrs by DAPI staining-based flow cytometry (reference value: 17.4%); type: functional
M21 [24] = assay: Cell cycle arrest in human M21 cells assessed as accumulation at G0/G1 phase at 1 uM after 24 hrs by DAPI staining-based flow cytometry (reference value: 65.1%); type: functional
M21 [25] = assay: Cell cycle arrest in human M21 cells assessed as accumulation at subG1 phase at 1 uM after 24 hrs by DAPI staining-based flow cytometry (reference value: 1.5%); type: functional
M21 [26] = assay: Cell cycle arrest in human M21 cells assessed as accumulation at G2/M phase at 13 uM after 24 hrs by DAPI staining-based flow cytometry (reference value: 16%); type: functional
M21 [27] = assay: Cell cycle arrest in human M21 cells assessed as accumulation at G0/G1 phase at 13 uM after 24 hrs by DAPI staining-based flow cytometry (reference value: 65.1%); type: functional
M21 [28] = assay: Cell cycle arrest in human M21 cells assessed as accumulation at subG1 phase at 13 uM after 24 hrs by DAPI staining-based flow cytometry (reference value: 1.5%); type: functional
M21 [29] = assay: Cell cycle arrest in human M21 cells assessed as accumulation at S phase at 13 uM after 24 hrs by DAPI staining-based flow cytometry (reference value: 17.4%); type: functional
M21 [30] = assay: Cell cycle arrest in human M21 cells assessed as accumulation at subG1 phase at 39 uM after 24 hrs by DAPI staining-based flow cytometry (reference value: 1.5%); type: functional
M21 [31] = assay: Cell cycle arrest in human M21 cells assessed as accumulation at S phase at 39 uM after 24 hrs by DAPI staining-based flow cytometry (reference value: 17.4%); type: functional
M21 [32] = assay: Cell cycle arrest in human M21 cells assessed as accumulation at G0/G1 phase at 39 uM after 24 hrs by DAPI staining-based flow cytometry (reference value: 65.1%); type: functional
M21 [33] = assay: Cell cycle arrest in human M21 cells assessed as accumulation at G2/M phase at 39 uM after 24 hrs by DAPI staining-based flow cytometry (reference value: 16%); type: functional
[34] = Homo sapiens, HT-1080, 48 h, read-out: IC50

Row | Structure (SMILES) | IC50 (HT-29) [µM] | IC50 (MCF7) [µM] | IC50 [1, 34] [µM] | IC50 (M21 [5]) [µM] | also measured
1 | Cc1ccc(OS(=O)(=O)c2ccc(NC(=O)NCCCl)cc2)c(C)c1 | 3.6 | 3.9 | 1.3 | 2.1 | Activity (M21 [2]): 46.4%; Activity (M21 [3]): Active; Activity (M21 [4]): 28.4%; Activity (M21 [6]): 1.4%; Activity (M21 [7]): 23.8%
2 | O=C(NCCCl)Nc1ccc(S(=O)(=O)Oc2cccc(I)c2)cc1 | 1.3 | 1.8 | 1.4 | 1.2 | Activity (M21 [8]): 89.5%; Activity (M21 [9]): 2%; Activity (M21 [10]): 4.9%; Activity (M21 [11]): 3.6%
3 | CCNC(=O)Nc1ccc(S(=O)(=O)Oc2ccccc2CC)cc1 | – | – | 0.36 | – | –
4 | O=C(NCCCl)Nc1ccc(S(=O)(=O)Oc2ccccc2F)cc1 | 5.4 | 6 | 3.2 | 4 | Activity (M21 [16]): 25.2%; Activity (M21 [17]): 2.6%; Activity (M21 [18]): 34.6%; Activity (M21 [19]): 37.6%; Activity (M21 [20]): Active
5 | CC(C)c1ccccc1OS(=O)(=O)c1ccc(NC(=O)NCCCl)cc1 | 1.5 | 1.8 | 0.84 | 1.5 | Activity (M21 [21]): 23.4%; Activity (M21 [22]): Active; Activity (M21 [23]): 51.8%; Activity (M21 [24]): 23.6%; Activity (M21 [25]): 1.2%
6 | O=C(NCCCl)Nc1ccc(S(=O)(=O)Oc2ccc(I)cc2)cc1 | 9.5 | 11 | 8.7 | 11 | –
7 | O=C(NCCCl)Nc1ccc(S(=O)(=O)Oc2cccc(Cl)c2)cc1 | 2.8 | 3.7 | 2.6 | 2.6 | Activity (M21 [26]): 80.6%; Activity (M21 [27]): 7.2%; Activity (M21 [28]): 5.2%; Activity (M21 [29]): 7%
8 | CN(C)c1ccc(OS(=O)(=O)c2ccc(NC(=O)NCCCl)cc2)cc1 | – | – | – | – | IC50 ([1]; ht-1080): Not Active
9 | N#Cc1ccc(OS(=O)(=O)c2ccc(NC(=O)NCCCl)cc2)cc1 | 18 | 19 | 14 | 19 | –
10 | O=C(NCCCl)Nc1ccc(S(=O)(=O)Oc2ccc(O)cc2)cc1 | – | – | – | – | IC50 ([1]; ht-1080): Not Active
11 | O=C(NCCCl)Nc1ccc(S(=O)(=O)Oc2cccc([N+](=O)[O-])c2)cc1 | 17 | 18 | 10 | 17 | –
12 | CCc1cccc(OS(=O)(=O)c2ccc(NC(=O)NCCCl)cc2)c1 | 5.6 | 7.1 | 3.8 | 6 | Activity (M21 [30]): 5%; Activity (M21 [31]): 11.3%; Activity (M21 [32]): 15.2%; Activity (M21 [33]): 68.5%
13 | CCc1ccc(OS(=O)(=O)c2ccc(NC(=O)NCCCl)cc2)cc1 | 15 | 16 | 9.8 | 16 | –
14 | COc1ccc(OS(=O)(=O)c2ccc(NC(=O)NCCCl)cc2)cc1OC | 13 | 15 | 11 | 12 | –

More lines, in order of falling IC50 (HT-29), values ahead:

Row | IC50 (HT-29) [µM] | IC50 (MCF7) [µM] | Structure (SMILES) | IC50 [1, 34] [µM] | IC50 (M21 [5]) [µM] | also measured
15 | 22 | 23 | COc1ccc(OS(=O)(=O)c2ccc(NC(=O)NCCCl)cc2)cc1 | 15 | 17 | –
16 | 20 | 19 | Cc1ccc(OS(=O)(=O)c2ccc(NC(=O)NCCCl)cc2)cc1 | 12 | 17 | –
17 | 17 | 19 | O=C(NCCCl)Nc1ccc(S(=O)(=O)Oc2ccccc2)cc1 | 8.8 | 16 | –
18 | 15 | 17 | CC(C)(C)c1ccc(OS(=O)(=O)c2ccc(NC(=O)NCCCl)cc2)cc1 | 6.8 | 18 | –
19 | 13 | 19 | COc1ccccc1OS(=O)(=O)c1ccc(NC(=O)NCCCl)cc1 | 8.3 | 15 | –
20 | 12 | 14 | O=C(NCCCl)Nc1ccc(S(=O)(=O)Oc2ccc(F)cc2)cc1 | 11 | 12 | –
21 | 11 | 13 | CCCc1ccc(OS(=O)(=O)c2ccc(NC(=O)NCCCl)cc2)cc1 | 5.2 | 12 | –
22 | 9.9 | 11.3 | O=C(NCCCl)Nc1ccc(S(=O)(=O)Oc2cc(F)c(F)c(F)c2)cc1 | 9.8 | 11.3 | –
23 | 6.6 | 9.4 | Cc1cc(OS(=O)(=O)c2ccc(NC(=O)NCCCl)cc2)cc(C)c1C | 9 | 6.5 | Activity (M21 [30]): 8.7%; Activity (M21 [31]): 14.8%; Activity (M21 [32]): 11.4%; Activity (M21 [33]): 65.1%
24 | 6.3 | 7.3 | O=C(NCCCl)Nc1ccc(S(=O)(=O)Oc2ccc(Cl)cc2)cc1 | 5.9 | 6 | Activity (M21 [12]): 19%; Activity (M21 [13]): 6.6%; Activity (M21 [14]): 65.8%; Activity (M21 [15]): 8.6%
25 | 6 | 7.2 | Cc1cccc(OS(=O)(=O)c2ccc(NC(=O)NCCCl)cc2)c1 | 5.8 | 6.2 | –
26 | 5.5 | 7.8 | O=C(NCCCl)Nc1ccc(S(=O)(=O)Oc2cccc(F)c2)cc1 | 4.5 | 5.3 | Activity (M21 [12]): 2.5%; Activity (M21 [13]): 4.4%; Activity (M21 [14]): 86.9%; Activity (M21 [15]): 6.2%
27 | 3.3 | 4.1 | CCc1ccccc1OS(=O)(=O)c1ccc(NC(=O)NCCCl)cc1 | 1.2 | 2.1 | Activity (M21 [2]): 44.1%; Activity (M21 [4]): 34.7%; Activity (M21 [6]): 2%; Activity (M21 [7]): 19.2%
28 | 2.1 | 2.6 | O=C(NCCCl)Nc1ccc(S(=O)(=O)Oc2cccc(Br)c2)cc1 | 2 | 2.2 | Activity (M21 [26]): 92.4%; Activity (M21 [27]): 1.6%; Activity (M21 [28]): 4.4%; Activity (M21 [29]): 1.6%
29 | 1.8 | 2.9 | Cc1cc(C)cc(OS(=O)(=O)c2ccc(NC(=O)NCCCl)cc2)c1 | 2.4 | 1.7 | –
30 | 1.5 | 1.51 | O=C(NCCCl)Nc1ccc(S(=O)(=O)Oc2ccccc2I)cc1 | 1.2 | 1.9 | Activity (M21 [21]): 15%; Activity (M21 [22]): Active; Activity (M21 [23]): 46.9%; Activity (M21 [24]): 36.4%; Activity (M21 [25]): 1.7%
31 | 1.5 | 1.9 | Cc1ccc(C)c(OS(=O)(=O)c2ccc(NC(=O)NCCCl)cc2)c1 | 1.7 | 1.5 | Activity (M21 [8]): 75.4%; Activity (M21 [9]): 7.2%; Activity (M21 [10]): 11.9%; Activity (M21 [11]): 5.5%
